Biological target: Bacillus anthracis lethal factor (Bacillus anthracis, UniProt P15917)
Experiment: biochemical

Sequence of Bacillus anthracis lethal factor (P15917 34-809 limits assumed): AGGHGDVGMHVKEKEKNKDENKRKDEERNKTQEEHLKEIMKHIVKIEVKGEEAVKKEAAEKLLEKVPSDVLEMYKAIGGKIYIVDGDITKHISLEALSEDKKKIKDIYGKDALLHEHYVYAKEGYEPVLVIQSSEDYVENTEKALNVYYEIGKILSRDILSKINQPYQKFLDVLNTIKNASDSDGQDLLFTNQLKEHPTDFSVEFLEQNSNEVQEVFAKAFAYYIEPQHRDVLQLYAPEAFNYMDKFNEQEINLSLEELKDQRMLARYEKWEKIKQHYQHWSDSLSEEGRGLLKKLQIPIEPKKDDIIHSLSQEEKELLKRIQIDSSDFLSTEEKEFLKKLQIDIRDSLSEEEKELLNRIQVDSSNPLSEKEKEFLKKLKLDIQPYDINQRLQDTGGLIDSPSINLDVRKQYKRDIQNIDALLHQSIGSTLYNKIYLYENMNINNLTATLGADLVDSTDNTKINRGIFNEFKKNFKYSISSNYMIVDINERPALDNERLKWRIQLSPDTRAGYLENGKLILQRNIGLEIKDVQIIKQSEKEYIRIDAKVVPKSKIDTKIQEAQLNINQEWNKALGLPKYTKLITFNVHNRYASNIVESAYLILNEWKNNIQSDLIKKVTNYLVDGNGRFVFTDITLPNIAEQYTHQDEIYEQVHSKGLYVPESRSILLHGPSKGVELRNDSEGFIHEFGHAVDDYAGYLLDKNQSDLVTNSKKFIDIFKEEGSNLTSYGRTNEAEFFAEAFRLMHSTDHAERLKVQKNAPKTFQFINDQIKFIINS

## Cc1cc(S(=O)(=O)N[C@@H](C(=O)NO)C2CCOCC2)ccc1F
  IC50: 60 nM

From patent publication US7504425B2 (priority 2002, dated 2009)
